Measured values: patent publication US5792457A, “Antibody recognizing endothelial cell ligand for leukocyte CR3” (priority 1995, dated 1998)

Legend:
B. pertussis = conditions: in vivo; cited from earlier work
[1] = test system: Factor Xa procoagulant activity on THP-1 cells; assay: Generation of Factor Xa by monocytes (THP-1), clotting assay; format: cell-based; conditions: for Factor Xa / Clotting time: peptides 0.5 mM; for reduction of Factor Xa production: 0.5 mM, vs scrambled FHA II, 20 min; for Clotting time: mean ± SD of at least 3 experiments
Method: Factor Xa generation was determined by a modification of the method of Miletich et al. (1978), J. Biol. Chem. 253: 6908-6916. THP-1 cells (ATCC; […]) resuspended in RPMI 1640 (Bio Whittaker, Walkersville,Md.) were incubated with 100 μM ADP (Sigma), 2.5 mM CaC2, 1 or 5 μg/ml Factor X (Hematologic Technologies Inc.) and 0.5 mM peptides at room temperature. After 20 minutes, 100 μl of the reaction mixture was transferred to 37° C. and supplemented with 100 μl of bovine factor VII- and Factor X-deficient plasma (Sigma). Coagulation was initiated by adding 100 μl of 25 mM CaC2 and the clotting time was determined. Factor Xa procoagulant activity (ng/ml) was calculated by means of a standard curve constructed by serial concentrations of Factor Xa (Hematologic Technologies Inc.) from 50 to 250 ng/ml.

CSF leukocytosis = assay: Rat meningitis model (LOS): CSF leukocytosis; format: in vivo, female Wistar rats; conditions: 4 hours after LOS
Method: The experiments were performed according to established protocols (Wispelway et al., 1988, J. Clin. Invest., 82: 1339-1346). Purified Haemophilus influenzae type b strain DL42 lipooligosaccharide (LOS) was prepared for inoculation by sonication for 30 minutes, dilution to the desired concentration (20 ng/50 μl) in normal saline or PBS, and sonication for an additional 15 to 30 minutes just prior to use.
(§1) Briefly, anesthetized female Wistar rats were placed under a micromanipulator and inoculated intracisternally with a 25 gauge needle. After removal of 50 μl of CSF (without visible blood contamination), rats were inoculated intracisternally with 50 μl (20 ng) of LOS using a 1 ml syringe with a 25 gauge needle. Ten to fifteen minutes after inoculation with LOS, the rats were treated by intravenous administration of the test substance: a solution of an FHA peptide in PBS, a solution of a control peptide in PBS, or an equal volume of PBS alone.
(§2) Three hours after LOS inoculation, 5 μCi of ^125 I-radiolabelled albumin in 50 μl normal saline was administered intravenously. One hour later, CSF was collected via intracisternal puncture and blood samples were collected via intracardiac puncture. CSF leukocytosis was determined by manually counting white blood cells using a hemacytometer, and blood-brain barrier permeability was determined as the percent of radioactivity in whole blood that was present in the CSF. Blood samples were obtained immediately prior to inoculation, immediately prior to treatment, and at 4 hours post-inoculation for determination of peripheral white blood cell concentrations.

[2] = test system: neutrophil adherence to human umbilical vein endothelial cells (HUVEC); assay: Adherence of neutrophils to cultured (TNF alpha stimulated) endothelial cells; format: cell-based
Method: FIG. 17 is a bar graph representation of the inhibition of neutrophil adherence to activated endothelial cells by FHA, Factor X- and FHA- derived peptides. The concentration of inhibiting substances was: peptides 0.5 mM, native FHA 0.3 μM. Values represent the mean±standard deviation of 4 experiments with 5 wells/peptide.
FIG. 18 is a graphical representation of the FHA, FHA- or Factor X-peptide concentration effects on the inhibition of neutrophil adherence to activated endothelial cells. FHA peptide II monomer (Square) and trimer (Diamond), Factor X peptide II (Circle) at 10^-9 μM to 0.5 mM; native FHA at 10^-6 to 3×10^2 μM (triangle). Values represent the mean of 3 experiments with 5 wells/peptide (standard deviations <15%).
FIG. 25 is a graphical representation of the inhibition of neutrophil adherence to activated endothelial cells by FHA and FHA peptides. FIG. 25A: Peptide concentrations were 0.5 mM (FHA 0.2 μM). Values represent mean±standard deviation of four experiments with 5 wells/peptide; FIG. 25B represents the mean±standard deviation of triplicate experiments with 5 wells/peptide. Native FHA (.quadrature.); FHA peptide Ca (.largecircle.).
Human umbilical vein endothelial cells (HUVEC, first passage, Clonetics, San Diego, Calif.) were subcultured at confluence into Terasaki tissue culture wells. After 24 hours, confluent monolayers were used for adherence assays. Monolayers were stimulated with 10 ng/ml TNF alpha (Boehringer Mannheim, Indianapolis, Ind.) at 37° C. for four hours. 30 μl of human neutrophils (10^6 /ml) were labeled with fluorescein by the method of Lo et al. (1991), J. ExP. Med. 173 1493-1500, and preincubated for 15 minutes at 37° C. with 20 μl of peptides (0.5 mM in HAP) or HAP (phosphate buffered saline containing 0.5 mg/ml human serum albumin, 3 mM glucose, and 0.3 U/ml aprotinin) as a control buffer. For some experiments, endothelial cells were pretreated from 10 minutes with Factor X or antibodies against Factor X receptor (EPR-1; Altieri et al. (1990), J. Immunol. 145, 246-253) 12H1 and 9D4 (obtained from Dr. D. Altieri, Scripps Research Institute, LaJolla, Calif.) and then washed. Neutrophils were allowed to adhere to the monolayer for 15 mins. at 37° C. and unbound cells were removed by submersion of the plate in PBS buffer. The number of adherent neutrophils was counted in a 40× microscope field and expressed as a percentage of adherence in control wells with neutrophils treated with HAP buffer alone. The mAb IB4 against CD18 (50 μg/ml; Merck Inc., Rahway, N.J.) served as a positive control.
The ability of FHA peptides and anti-CD18 or anti-Factor X receptor antibodies to interact cooperatively to inhibit neutrophil adherence to endothelial cells was assessed by measuring neutrophil adherence to endothelial cells in the presence of antibody as well as antibody plus peptide. […] Anti-Factor X receptor mAb 12H1 (10 μl of ascites) or 9D4 (10 μg/ml) were added to the endothelial cell monolayers 10 min before the assay. The peptides were added at 5 μg/ml. The results are shown in Table 8 where the numerical values are in % of control binding.
(§3) The procedures for determining the neutrophil adherence to cultured endothelial cells and the transendothelial migration of neutrophils were identical with those of Example 9. Control values were the same as those shown in Example 9.

[3] = test system: transendothelial migration of human neutrophils through HUVEC monolayers; assay: Transendothelial migration (TEM) of neutrophils; format: cell-based; conditions: peptides 0.01 mM, native FHA 1 μM; at least 3 experiments with 6 wells/peptide
Source text: FIG. 26 is a graphical representation of the inhibition of transendothelial migration of neutrophils by FHA peptide Ca, native FHA and mAb IB4 in a concentration dependent fashion. FHA peptide Ca (.largecircle.); intact FHA (.quadrature.); and mAb IB4 (.tangle-solidup.). Values represent mean±standard deviation of at least 3 experiments with 6 wells/peptide.
Transendothelial migration of neutrophils was studied based on a method described by Muller et al. (1992), J. Exp. Med. 176: 819-828. Briefly, human neutrophils suspended in ice-cold Hanks balanced salt solution (HBSS) containing Ca^++ and Mg^++ (Sigma) were fluoresceinated by adding 3.3 μl/ml 5-(and 6-)carboxyfluorescein diacetate, succinimidyl ester (CFSE, Molecular Probes Inc., Oreg.). After incubation for 30 mins. on ice, neutrophils were washed twice in cold HBSS with Ca^++ and Mg^++ and resuspended in cold Medium 199 (M199, Sigma) to a final concentration of 10^6 /ml. Human umbilical vein endothelial cells were subcultured at confluence into 96-well tissue culture plates (Becton Dickinson Labware, Lincoln Park, N.J.) that were coated with hydrated collagen gel (Vitrogen; Collagen Corporation, Palo Alto, Calif.) and fibronectin. Endothelial cells were stimulated with 10 ng/ml TNF-alpha for 4 hours and washed three times with warm M199. Neutrophils (10^6 /ml) were preincubated with 0.01 mM of peptides or with 1 μM of native FHA in M199 for 5 mins. on ice before they were added in 100 μl aliquots to the endothelial cells. For positive control, neutrophils were pre-incubated with 25 μg/ml anti-CD18 mAb IB4. For negative control, neutrophils were treated with 25 μg/ml mAb W6/32 against HLA class I antigen (Dako, Carpinteria, Calif.). The cells were incubated for 1 hour at 37° C., 5% CO2. To terminate transmigration, the supernatant fluid was aspirated and the wells were filled with warm 1 mM EGTA (Sigma) in HBSS without Ca and Mg. The plates were covered with plate sealers (Dynatech, Alexandria, Va.) and centrifuged in an inverted position at 250 g for 3 mins. at room temperature. To remove residual non-transmigrated neutrophils from the endothelial cells, monolayers were washed twice with 200 μl of warm Hanks solution without Ca and Mg. Fluorescence was quantitated using a fluorescence counter (Millipore Cytofluorm™ 2300). The percentage of transmigrated neutrophils was determined by comparing the amount of fluorescence of test wells with that measured in collagen- and fibronectin-coated wells without endothelial cells. […] Percent inhibition of transendothelial migration of neutrophils was calculated by comparing the number of transmigrated cells in wells containing neutrophils treated with peptide to neutrophils treated with M199 alone and arbitrarily set at 100% transendothelial migration (TEM).
as §3

Factor X binding to CR3 = conditions: cited from earlier work
[4] = test system: blood-brain barrier permeability; assay: Rat meningitis model (LOS): blood-brain barrier permeability (125I-albumin); format: in vivo, female Wistar rats; conditions: 100 nmol; percent of radioactivity in whole blood present in CSF
Method: as §1, §2

[5] = test system: recognition of C3bi by antibody 12.1F9; assay: Inhibition of binding of 12.1F9 to E^C3bi by peptides; set-up: species or system human; conditions: peptides 50 μg/ml; for Adherence index: normalized to control value of 100, 6 experiments
Source text: Values are normalized to a control value of 100; data are expressed as the mean±SD of 6 experiments with duplicate wells.

Compound	Factor Xa [1] [ng/mL]	% Inhibition of TEM [3] [%]	Clotting time [1] [s]	Adherence index [5]	other results
OC[C@H]1O[C@@H](O[C@H]2[C@H](O)[C@@H](O)C(O)O[C@@H]2CO)[C@H](O)[C@@H](O)[C@H]1O (stereo partly drawn) [Lactose]					colonization of rabbit lung (in words) (B. pertussis): decrease colonization of rabbit lung
CC(=O)N[C@@H](CC(C)C)C(=O)N[C@@H](CC(C)C)C(=O)N[C@H](C=O)CCCNC(=N)N [Leupeptin, reference compound]	< 10.0				
Ac-VEEDTKG-NH2 [scrambled ac/am FHA II, VEEDTKG]					Leukocytosis (CSF) (CSF leukocytosis; 600 nmol i.v.): 14,287 ± 10,199 cells/ml; Leukocytosis (CSF) (CSF leukocytosis; 600 nmol i.v., listed as control peptide (scrambled ac/am FHA II)): approximately 14,000 cells/ml
FHA peptide A: synthetic peptide, residues 1055-1099, SEQ ID NO: 20 (IGALKAGAVEAASPRRARRALRQDFFTPGSVVVRAQGNVTVGRGD; UniProt P12255 1055-1099, looked up, fragment)					inhibition of neutrophil adherence ([2]; 45/50-mer peptides, FHA peptide C 1 mg/ml, 0.2 mM): < 15%
GLIQGRSVKVD [FHA Ib]	31.3	7 ± 10	38.0 ± 7.6		reduction of Factor Xa production [1]: 81%
GLYQAKRFKVG [Factor X I]	37.8	10 ± 6	37.0 ± 4.0		effect on Factor Xa generation (in words) [1]: substantial reduction that did not reach statistical significance; inhibition of binding of CR3 bearing cells to Factor X (in words) (Factor X binding to CR3): competitively inhibit the binding of CR3 bearing tissue culture cells to purified Factor X
GRTRG (UniProt P12255 32-36, looked up, fragment) [FHA III]	43.4	5 ± 6	36.2 ± 2.7		inhibition of neutrophil adherence (in words) ([2]; peptides 0.5 mM (Example 9)): less effective than the corresponding Factor X derived peptide; reduction of Factor Xa production [1]: 74%
IDRSMKTRG [Factor X III]	107.5	5 ± 7	26.5 ± 2.4		effect on Factor Xa generation (in words) [1]: substantial reduction that did not reach statistical significance; inhibition of binding of CR3 bearing cells to Factor X (in words) (Factor X binding to CR3): competitively inhibit the binding of CR3 bearing tissue culture cells to purified Factor X
IDVPQHGGAMRDLGIAQGKD [scrambled FHA Ca]					Leukocytosis (CSF) (CSF leukocytosis; 100 nmol i.v.): 20,700 ± 7,400 cells/ml; Leukocytosis (CSF) (CSF leukocytosis; 100 nmol i.v., listed as control peptide (scrambled FHA Ca)): approximately 20,000 cells/ml; BBB permeability [4]: 6.74 ± 3.48%
TRYRGDQDATMS [C3/12, reference compound]				127 ± 27	
VTVGRGDPAQG [FHA RGD]				85 ± 9	
YTVAIAGYALA [C3-pep 1187-1197]				30 ± 16	block of binding of 12.1F9 to E^C3bi [5]: up to 60%
YTVSADAIALA [FHA 1408-1418]				21 ± 11	block of binding of 12.1F9 to E^C3bi [5]: up to 60%
